Here are results for two compounds from patent US20210077570A1, “COMPOSITION COMPRISING A POLYMYXIN AND TEICOPLANIN” (GALENUS G.H. AG, priority 2018, published 2021).

One test relates to A. haemolyticus 1655843. Kind of test: Checkerboard analysis MIC/FIC and MBC/FBC, colistin sulphate plus teicoplanin. It is filed as cell-based. The following applies: agent alone, CAMHB, inoculum 5*10^5 CFU/ml; for MBC: A. haemolyticus. The method, then: Checkerboard analysis to determine minimal inhibitory concentration (MIC)/fractional inhibitory concentration (FIC) and minimal […] (MBC)/fractional […] (FBC) values of colistin sulphate (CS) plus teicoplanin (TP) for 6 Gram-negative strains with a bacterial load 5(1−10)*10^5 CFU/ml in a cation-adjusted Mueller-Hinton broth (CAMHB). • a. Antimicrobial stock solutions were prepared using sterile distilled water • b. CS was added along the ordinate; TP was added along the abscissa to 96 well, flat bottom, polystyrene panels with no treatment. Colistin alone was tested in triplicates. • c. Serial 2-fold dilutions starting with 640 μg/ml CS and 640 μg/ml TP were made; 15 μl volume of the serial dilutions were added for each agent to the appropriate wells; final volume at 30 μl • d. For each agent tested alone an additional 15 μl media was added to the well. 30 μl were added in control wells where none of the agent was tested. The negative control well contains 150 μl media without any additions • e. From an overnight bacterial culture in tryptic soy broth, 100 μl was added to 10 mL of fresh tryptic soy broth. This was then incubated at 37° C. for 1.5 hour at 180 rpm. • f. Bacteria in 120 μl CAMHB were added to each well (end concentration 5(1−10)*10^5 CFU/ml) • g. Plates were incubated at 37° C. in an ambient air incubator for 24 h • h. Turbidity at OD600 is determined with a plate photometer • i. […] Determination of the fractional inhibitory concentration (FIC) index and fractional bactericidal concentration (FBC) index and characterization of antimicrobial interactions was assessed • FIC calculation was carried out as: (MIC of drug A, tested in combination)/(MIC of drug A, tested alone)+(MIC of drug B, tested in combination)/(MIC of drug B, tested alone). FBC calculation was carried out just as well • Interactive categories were calculated from checkerboard analysis using MIC results from testing each agent alone and MIC results from the combination wells adjacent to the wells with growth in them […]

A further test has as its system A. guillouiae 1285286. The test is described as above. It is filed as cell-based. The following applies: agent alone, CAMHB, inoculum 5*10^5 CFU/ml; for MIC: A. guillouiae 1285286, 24 h; for MBC: A. guillouiae. The protocol: (§1) Checkerboard analysis to determine minimal inhibitory concentration (MIC)/fractional inhibitory concentration (FIC) and minimal […] (MBC)/fractional […] (FBC) values of colistin sulphate (CS) plus teicoplanin (TP) for 6 Gram-negative strains with a bacterial load 5(1−10)*10^5 CFU/ml in a cation-adjusted Mueller-Hinton broth (CAMHB). • a. Antimicrobial stock solutions were prepared using sterile distilled water • b. CS was added along the ordinate; TP was added along the abscissa to 96 well, flat bottom, polystyrene panels with no treatment. Colistin alone was tested in triplicates. • c. Serial 2-fold dilutions starting with 640 μg/ml CS and 640 μg/ml TP were made; 15 μl volume of the serial dilutions were added for each agent to the appropriate wells; final volume at 30 μl • d. For each agent tested alone an additional 15 μl media was added to the well. 30 μl were added in control wells where none of the agent was tested. The negative control well contains 150 μl media without any additions • e. From an overnight bacterial culture in tryptic soy broth, 100 μl was added to 10 mL of fresh tryptic soy broth. This was then incubated at 37° C. for 1.5 hour at 180 rpm. • f. Bacteria in 120 μl CAMHB were added to each well (end concentration 5(1−10)*10^5 CFU/ml) • g. Plates were incubated at 37° C. in an ambient air incubator for 24 h • h. Turbidity at OD600 is determined with a plate photometer • i. By using a one-time inoculator 3 μl from each well of the 96-well plate were transferred to three blood agar plates. The plates were incubated over night at 37° C. in an ambient air incubator • j. MIC values are defined as lowest concentration which restricts bacterial growth to OD600≤0.1 • k. MBC values were determined by visual reading the lowest concentration which inhibits 99.9% of the growth of bacteria in the wells • l. Determination of the fractional inhibitory concentration (FIC) index and fractional bactericidal concentration (FBC) index and characterization of antimicrobial interactions was assessed • FIC calculation was carried out as: (MIC of drug A, tested in combination)/(MIC of drug A, tested alone)+(MIC of drug B, tested in combination)/(MIC of drug B, tested alone). FBC calculation was carried out just as well • Interactive categories were calculated from checkerboard analysis using MIC results from testing each agent alone and MIC results from the combination wells adjacent to the wells with growth in them […]
b. Indifference; FIC/FBC>0.5 to <4.0 c. Antagonism; FIC/FBC≥4.0 d. A. guillouiae 1285286 (IHMA), colistin resistant

Test [1] has as its system non-multiplying stationary phase bacteria. Kind of test: Elimination of dormant (resistant) bacteria, long term non-multiplying stationary phase model. The following applies: nutrient depleted 5-6 day stationary phase cell suspension in PBS. It is filed as cell-based. The protocol:
In order to test the elimination of dormant (resistant) bacteria the long term non-multiplying stationary phase model is used (Hu et al 2010 [18]). Long-term stationary phase cultures of 5 to 6 days are chosen with the test strains as described above. These late stationary phase cultures, may represent a mixed population with a dynamic balance of cell division and cell death. In order to induce the bacterial cells into a non-replicating stage, the cells are washed and incubated with PBS. […] The nutrient depleted 5-6 day stationary phase cell suspension now called non-multiplying stationary phase bacteria is used to test TEC and CS as mono substances or in combinations with the concentrations as mentioned above.

In the next test the test system is A. junii 1397597. Kind of test: Checkerboard analysis MIC/FIC and MBC/FBC, colistin sulphate plus teicoplanin. It is filed as cell-based. The following applies: agent alone, CAMHB, inoculum 5*10^5 CFU/ml; for MBC: A. junii; for MIC: A. junii 1397597, 24 h. The method, then: as §1
b. Indifference; FIC/FBC>0.5 to <4.0 c. Antagonism; FIC/FBC≥4.0 a. A. junii 1391597 (IHMA), colistin resistant

The test system of test [2] is stationary bacteria from biofilm. Kind of test: Elimination of stationary bacteria from biofilm (catheter piece in CAMHB). It is filed as cell-based. The following applies: for Elimination of bacteria from biofilm: conclusion, TEC alone in case a Gram-positive strain is tested; for Colony counts, incubated with as compared without a catheter piece / Increase (at least two dilution steps) of MIC, incubated with as compared without a catheter piece: tubes showing no gross turbidity; for Colony counts, incubated with as compared without a catheter piece: after centrifugation, any of the strains tested, TEC mono in case a Gram-positive strain is tested; for Increase (at least two dilution steps) of MIC, incubated with as compared without a catheter piece: MIC of CS, or of TEC in case a Gram-positive strain is tested. The protocol: To test the elimination of stationary bacteria from biofilm in vitro in CAMHB comparing combination versus monotherapy the same teicoplanin and colistin (serum) concentrations derived from pharmacokinetic studies are used as above.
Each of the total 16 sets as above is performed in duplicates. Each tube is filled with 5 ml CAMHB and in one of each duplicates a 2 cm long piece of a plastic catheter is inserted. Then all tubes are inoculated with the test strain and incubated aerobically at ambient air at 37° C. overnight (16-24 h). The tubes are removed from the incubator and the appropriate blank, mono or combination drug concentrations to be tested are added to each tube and the tubes are incubated aerobically at ambient air at 37° C. for an additional 24 h. The tubes are removed from the incubator and vortexed for about 10 min. Thereafter the catheter pieces from the corresponding one of the duplicates are removed.
From tubes showing growth with turbidity the MIC of CS or TEC in case of testing Gram-positive bacteria for the test strains is determined as above and compared to the original MIC. All tubes showing growth or no growth according to turbidity are centrifuged for 10 min at 3000 rpm and about 100 μL of the sediment is transferred onto IsoSensitest agar plate supplemented with 5% blood (Oxoid) and containing concentrations of CS of 4 mg/L, 8 mg/L, 16 mg/L, and 32 mg/L—or TEC of 4 mg/L, 8 mg/L, 16 mg/L in case a Gram-positive strain is tested. After overnight incubation the number of CFUs growing on the plates containing different CS concentrations—or TEC concentrations in case a Gram-positive strain is tested—are counted.

A further test has as its system S. maltophilia 1221783. Kind of test: Checkerboard analysis MIC/FIC and MBC/FBC, colistin sulphate plus teicoplanin. It counts as cell-based, Stenotrophomonas maltophilia. The following applies: agent alone, CAMHB, inoculum 5*10^5 CFU/ml; for MIC: S. maltophilia 1221783, 24 h; for MBC: S. maltophilia, first line of Table 2 (1221783 by order). The protocol:
as §1
b. Indifference; FIC/FBC>0.5 to <4.0 c. Antagonism; FIC/FBC≥4.0 […]
e. Stenotrophomonas maltophilia 1221783 (IHMA), colistin susceptible

For the next test, the system named is A. nosocomialis 1461911. The test is described as above. It is filed as cell-based. The following applies: agent alone, CAMHB, inoculum 5*10^5 CFU/ml; for MIC: A. nosocomialis 1461911, 24 h; for MBC: A. nosocomialis. The protocol: as §1
b. Indifference; FIC/FBC>0.5 to <4.0 c. Antagonism; FIC/FBC≥4.0 b. A. nosocomialis 1461911 (IHMA), colistin resistant

Read-outs that look alike come from different tables or passages of the source. Positions of bridges follow the written chain, without caps; N, C: chain ends. Non-standard residues stand in square brackets, D forms with d. Residues, ends and D or L forms follow the SMILES beside them. *: point of attachment. Heptanoyl(5-Me) = CCC(C)CCCC(=O)*; Dab = NCC[C@H](N)C(=O)O

In the case of `CCC(C)CCCC(=O)N[C@@H](CCN)C(=O)N[C@H](C(=O)N[C@@H](CCN)C(=O)N[C@H]1CCNC(=O)[C@H]([C@@H](C)O)NC(=O)[C@H](CCN)NC(=O)[C@H](CCN)NC(=O)[C@H](CC(C)C)NC(=O)[C@@H](CC(C)C)NC(=O)[C@H](CCN)NC1=O)[C@@H](C)O` (stereo partly drawn) [CS, colistin sulphate] ({Heptanoyl(5-Me)}-[Dab]T[Dab][Dab][Dab][dL]L[Dab][Dab]T; lactam 4-C), the MBC in the test with A. haemolyticus 1655843 (Acinetobacter haemolyticus, 1655843, read-out: MBC) was > 16 µg/mL; in the test on A. guillouiae 1285286 (read-out: MBC), 4 µg/mL; in the test on A. junii 1397597 (Acinetobacter junii, 1397597, read-out: MBC), 8 µg/mL; with S. maltophilia 1221783 (Stenotrophomonas maltophilia, read-out: MBC) it was 2 µg/mL; in the test on A. nosocomialis 1461911 (Acinetobacter nosocomialis, 1461911, read-out: MBC), 8 µg/mL. Besides, the MIC in the test with A. guillouiae 1285286 (read-out: MIC) is 2 µg/mL; in the test with A. junii 1397597 (Acinetobacter junii, read-out: MIC), 2 µg/mL; in the test with S. maltophilia 1221783 (Stenotrophomonas maltophilia, 1221783, 24 h, read-out: MIC), 0.5 µg/mL; in the test on A. nosocomialis 1461911 (Acinetobacter nosocomialis, 1461911, 24 h, read-out: MIC), ≥ 4 µg/mL. In addition, the “Elimination of non-multiplying stationary phase bacteria” value in test [1] is “not as mono substances”. The “Elimination of bacteria from biofilm” value in test [2] was “not so well the case”. Also, the “Colony counts, incubated with as compared without a catheter piece” value in test [2] is reported as “higher colony counts”. Besides, the “Increase (at least two dilution steps) of MIC, incubated with as compared without a catheter piece” value in test [2] is on record as “about one third”.

As to teicoplanin [TP], the MIC with A. haemolyticus 1655843 (A. haemolyticus 1655843, 24 h) was >64 µg/mL; in the test with A. guillouiae 1285286, >64 µg/mL; in the test on A. junii 1397597 it was >64 µg/mL; in the test on S. maltophilia 1221783, >64 µg/mL; in the test on A. nosocomialis 1461911 it was >64 µg/mL. In addition, the MBC in the test with A. haemolyticus 1655843, in the test with A. guillouiae 1285286, in the test with A. junii 1397597, with S. maltophilia 1221783 and in the test on A. nosocomialis 1461911 was >64 µg/mL each time. In addition, the “Elimination of non-multiplying stationary phase bacteria” value in test [1] was “not as mono substances”. Moreover, the “Elimination of bacteria from biofilm” value in test [2] is “not so well the case”. The “Colony counts, incubated with as compared without a catheter piece” value in test [2] is “higher colony counts”. Besides, the “Increase (at least two dilution steps) of MIC, incubated with as compared without a catheter piece” value in test [2] is reported as “about one third”.
